We go through one compound from paper PMC6001782 (Chemistry (Weinheim an Der Bergstrasse, Germany), 2018).

The target in the assay is T1, BtGH99 (Bacteroides thetaiotaomicron, UniProt Q8A109).
T1 sequence (Q8A109 18-382): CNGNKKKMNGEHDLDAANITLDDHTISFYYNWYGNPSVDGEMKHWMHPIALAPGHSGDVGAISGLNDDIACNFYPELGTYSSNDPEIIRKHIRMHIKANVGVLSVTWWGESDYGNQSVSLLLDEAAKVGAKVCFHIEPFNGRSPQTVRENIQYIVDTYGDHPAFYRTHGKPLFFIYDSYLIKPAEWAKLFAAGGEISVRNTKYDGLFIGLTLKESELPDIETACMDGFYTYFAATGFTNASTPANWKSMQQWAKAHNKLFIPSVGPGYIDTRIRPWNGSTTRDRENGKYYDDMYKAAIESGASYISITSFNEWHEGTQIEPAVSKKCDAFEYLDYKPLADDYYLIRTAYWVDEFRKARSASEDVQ
Put plainly: isothermal titration calorimetry. It counts as binding.

For the compound `N[C@@H]1CN[C@H](CO)[C@@H](O)[C@@H]1O[C@H]1O[C@H](CO)[C@@H](O)[C@H](O)[C@@H]1O` [compound 1, α‐D‐Mannopyranosyl‐(1→3)‐2‐amino‐1,2,5‐trideoxy‐1,5‐imino‐D‐mannitol], the dissociation constant (Kd) worked out at 97.7 ± 4.9 µM.

Usually Kd stands for a measure of binding affinity in units of concentration.
